The NIST ThermoML archive (doi:10.1016/j.jct.2016.02.016)
± gives the expanded uncertainty stated by the source.

Columns and labels:
[1] = 101.33 kPa, Liquid; for speed of sound: Sing-around technique in a fixed-path interferometer; for mass density: Vibrating tube method
[2] = refractive index (Na D-line) (dimensionless); conditions: 101.33 kPa, Liquid, Standard Abbe refractometry
[3] = refractive index (Na D-line) (dimensionless); xn = mol fraction of the nth substance listed; conditions: 100 kPa, Liquid, Standard Abbe refractometry
[4] = xn = mol fraction of the nth substance listed; conditions: 100 kPa, Liquid; for speed of sound: Frequency=3 MHz, Sing-around technique in a fixed-path interferometer; for mass density: Vibrating tube method

CCCCCC(C)=O [2-heptanone]
Conditions | mass density, 293.15 K [kg/m3] | mass density, 298.15 K [kg/m3] | mass density, 303.15 K [kg/m3] | refractive index, 298.15 K | speed of sound, 293.15 K [m/s] | speed of sound, 298.15 K [m/s] | speed of sound, 303.15 K [m/s]
[1] | 815.39 ± 2 | 811.08 ± 2 | 806.81 ± 1.9 | – | 1282.1 ± 1.6 | 1262.7 ± 1.5 | 1244.4 ± 1.5
[2] | – | – | – | 1.40688 ± 0.0042 | – | – | –

CCCCCC(C)=O [2-heptanone] + CN(C)C=O
298.15 K
Conditions | mass density, [4] [kg/m3] | refractive index, [3] | speed of sound, [4] [m/s]
x2 = 0 | 811.08 ± 2 | 1.40688 ± 0.0042 | 1262.7 ± 1.6
x2 = 0.053 | 815.095 ± 2 | 1.40756 ± 0.0042 | 1268.2 ± 1.5
x2 = 0.0936 | 818.298 ± 2 | 1.40811 ± 0.0042 | 1272.9 ± 1.5
x2 = 0.1502 | 822.964 ± 2 | 1.4089 ± 0.0042 | 1279 ± 1.5
x2 = 0.2011 | 827.389 ± 2 | 1.40962 ± 0.0042 | 1285.3 ± 1.5
x2 = 0.2495 | 831.808 ± 2 | 1.41034 ± 0.0042 | 1291.3 ± 1.5
x2 = 0.296 | 836.272 ± 2 | 1.41107 ± 0.0043 | 1297.5 ± 1.5
x2 = 0.3419 | 840.896 ± 2 | 1.41182 ± 0.0043 | 1304 ± 1.5
x2 = 0.3963 | 846.646 ± 2 | 1.41276 ± 0.0043 | 1312.2 ± 1.5
x2 = 0.4324 | 850.691 ± 2.1 | 1.41341 ± 0.0043 | 1318 ± 1.5
x2 = 0.4957 | 858.13 ± 2.1 | 1.41462 ± 0.0043 | 1328.7 ± 1.5
x2 = 0.5537 | – | 1.41582 ± 0.0043 | –
x2 = 0.5985 | 871.481 ± 2.1 | 1.41679 ± 0.0043 | 1348.2 ± 1.5
x2 = 0.6368 | 876.894 ± 2.1 | 1.41766 ± 0.0043 | 1356.2 ± 1.5
x2 = 0.6999 | 886.398 ± 2.1 | 1.41919 ± 0.0043 | 1370.3 ± 1.5
x2 = 0.7433 | 893.368 ± 2.2 | 1.42032 ± 0.0043 | 1380.8 ± 1.5
x2 = 0.8482 | 911.958 ± 2.2 | 1.42329 ± 0.0043 | 1408.7 ± 1.5
x2 = 0.8634 | 914.867 ± 2.2 | 1.42376 ± 0.0043 | 1413.1 ± 1.5
x2 = 0.8985 | 921.855 ± 2.2 | 1.42488 ± 0.0043 | 1423.7 ± 1.5
x2 = 0.948 | 932.305 ± 2.3 | 1.42651 ± 0.0043 | 1439.5 ± 1.5

CC(C)=O [acetone]
Conditions | mass density, 293.15 K [kg/m3] | mass density, 298.15 K [kg/m3] | mass density, 303.15 K [kg/m3] | refractive index, 293.15 K | refractive index, 298.15 K | speed of sound, 293.15 K [m/s] | speed of sound, 298.15 K [m/s] | speed of sound, 303.15 K [m/s]
[1] | 790.19 ± 1.9 | 784.43 ± 1.9 | 778.63 ± 1.9 | – | – | 1183.6 ± 1.1 | 1163.6 ± 1.1 | 1139.9 ± 1.1
[2] | – | – | – | 1.35845 ± 0.0041 | 1.35386 ± 0.0041 | – | – | –

CCC(C)=O [butanone]
Conditions | mass density, 293.15 K [kg/m3] | mass density, 298.15 K [kg/m3] | mass density, 303.15 K [kg/m3] | refractive index, 293.15 K | refractive index, 298.15 K | refractive index, 303.15 K | speed of sound, 293.15 K [m/s] | speed of sound, 298.15 K [m/s] | speed of sound, 303.15 K [m/s]
[1] | 805.06 ± 1.9 | 799.78 ± 1.9 | 794.55 ± 1.9 | – | – | – | 1212.6 ± 1.2 | 1191.5 ± 1.2 | 1172 ± 1.2
[2] | – | – | – | 1.37872 ± 0.0042 | 1.37605 ± 0.0041 | 1.37351 ± 0.0041 | – | – | –

CN(C)C=O [dimethylformamide]
Conditions | mass density, 293.15 K [kg/m3] | mass density, 298.15 K [kg/m3] | mass density, 303.15 K [kg/m3] | refractive index, 293.15 K | refractive index, 298.15 K | refractive index, 303.15 K | speed of sound, 293.15 K [m/s] | speed of sound, 298.15 K [m/s] | speed of sound, 303.15 K [m/s]
[1] | 948.82 ± 2.3 | 944.06 ± 2.3 | 939.28 ± 2.3 | – | – | – | 1476.7 ± 1.5 | 1458.6 ± 1.4 | 1438.8 ± 1.4
[2] | – | – | – | 1.43055 ± 0.0043 | 1.4284 ± 0.0043 | 1.4261 ± 0.0043 | – | – | –

CN(C)C=O [dimethylformamide] + CC(C)=O
x1 = 1
Conditions | mass density, 293.15 K [kg/m3] | mass density, 298.15 K [kg/m3] | mass density, 303.15 K [kg/m3] | refractive index, 293.15 K | refractive index, 298.15 K | speed of sound, 293.15 K [m/s] | speed of sound, 298.15 K [m/s] | speed of sound, 303.15 K [m/s]
[3] | – | – | – | 1.43055 ± 0.0043 | 1.4284 ± 0.0043 | – | – | –
[4] | 948.82 ± 2.3 | 944.06 ± 2.3 | 939.28 ± 2.3 | – | – | 1476.7 ± 1.5 | 1458.6 ± 1.4 | 1438.8 ± 1.4

CN(C)C=O [dimethylformamide] + CCC(C)=O
x1 = 1
Conditions | mass density, 293.15 K [kg/m3] | mass density, 298.15 K [kg/m3] | mass density, 303.15 K [kg/m3] | refractive index, 293.15 K | refractive index, 298.15 K | refractive index, 303.15 K | speed of sound, 293.15 K [m/s] | speed of sound, 298.15 K [m/s] | speed of sound, 303.15 K [m/s]
[3] | – | – | – | 1.43055 ± 0.0043 | 1.4284 ± 0.0043 | 1.4261 ± 0.0043 | – | – | –
[4] | 948.82 ± 2.3 | 944.06 ± 2.3 | 939.28 ± 2.3 | – | – | – | 1476.7 ± 1.5 | 1458.6 ± 1.4 | 1438.8 ± 1.4

CN(C)C=O [dimethylformamide] + CCCC(C)=O
x1 = 1
Conditions | mass density, 293.15 K [kg/m3] | mass density, 298.15 K [kg/m3] | mass density, 303.15 K [kg/m3] | refractive index, 293.15 K | refractive index, 298.15 K | refractive index, 303.15 K | speed of sound, 293.15 K [m/s] | speed of sound, 298.15 K [m/s] | speed of sound, 303.15 K [m/s]
[3] | – | – | – | 1.43055 ± 0.0043 | 1.4284 ± 0.0043 | 1.4261 ± 0.0043 | – | – | –
[4] | 948.82 ± 2.3 | 944.06 ± 2.3 | 939.28 ± 2.3 | – | – | – | 1476.7 ± 1.5 | 1458.6 ± 1.4 | 1438.8 ± 1.4

CN(C)C=O [dimethylformamide] + CCCCCC(C)=O
298.15 K, x1 = 1
Conditions | mass density [kg/m3] | refractive index | speed of sound [m/s]
[3] | – | 1.4284 ± 0.0043 | –
[4] | 944.06 ± 2.3 | – | 1458.6 ± 1.4

CCCC(C)=O [pentan-2-one]
Conditions | mass density, 293.15 K [kg/m3] | mass density, 298.15 K [kg/m3] | mass density, 303.15 K [kg/m3] | refractive index, 293.15 K | refractive index, 298.15 K | refractive index, 303.15 K | speed of sound, 293.15 K [m/s] | speed of sound, 298.15 K [m/s] | speed of sound, 303.15 K [m/s]
[1] | 806.83 ± 2 | 801.99 ± 2 | 796.73 ± 2 | – | – | – | 1232.4 ± 2.3 | 1211.9 ± 2.3 | 1191.7 ± 2.3
[2] | – | – | – | 1.39026 ± 0.0042 | 1.38793 ± 0.0042 | 1.38523 ± 0.0042 | – | – | –
